# Test results as given in PubChem BioAssay AID488879 (Sanford-Burnham Center for Chemical Genomics, 2010).
# Activity calls are given as the source filed them. No rule for the calls is given here.
# Biological target: alkaline phosphatase, placental type (Homo sapiens)
# Assay: PLAP enzyme inhibitors, dose response, selectivity assay for mouse IAP inhibitor project, biochemical, uHTS hits (AID 488879)
# Conditions: purified human placental alkaline phosphatase, enzymatic inhibition
row,SMILES,IC50
1,Cc1cc(Cn2nc(-c3ccccc3)cc2C(=O)NCc2cccc(C(F)(F)F)c2)on1,> 100 µM (inactive)
2,Cc1cc(O)c(Sc2ncn[nH]2)cc1NS(=O)(=O)c1ccc(Cl)cc1,> 100 µM (inactive)
3,Cc1ccc(CNC(=S)NC2CCC(C(C)(C)C)CC2)cc1 (configuration not stated),> 100 µM (inactive)
4,O=C(/C=C/c1ccco1)NC(=S)Nc1ccc(C(=O)O)cc1,> 100 µM (inactive)
5,CCOc1ccccc1N1CCN(S(=O)(=O)c2ccc3c4c(cccc24)C(=O)N3)CC1,> 100 µM (inactive)
6,N#CC(C#N)=Cc1ccc(O)c(O)c1,> 100 µM (inactive)
7,Oc1cc(O)c2c(c1)OC(c1ccc(O)c(O)c1)C(O)C2 (configuration not stated),> 100 µM (inactive)
8,COc1cccc(NC(=O)CN(C)S(=O)(=O)c2ccc3[nH]c(=O)oc3c2)c1,> 100 µM (inactive)
9,Cc1cc(C)cc(NC(=S)NC2CC3CCCC(C2)N3Cc2cccs2)c1 (configuration not stated),42 µM
10,CCN(c1ccccc1)S(=O)(=O)c1ccc2[nH]c(=O)[nH]c2c1,62.6 µM
11,Oc1ccc(-c2csc(Nc3cccc4ccccc34)n2)cc1O,> 100 µM (inactive)
12,O=C1CC(c2ccc(O)c(O)c2)Oc2c1ccc(O)c2O (configuration not stated),> 100 µM (inactive)
13,NS(=O)(=O)c1cccc(NC(=O)CSc2nnc(-c3ccncc3)n2C2CC2)c1,> 100 µM (inactive)
14,CCN1C(=O)/C(=C2\SC(=S)N(NC(=O)c3ccccc3O)C2=O)c2ccccc21,> 100 µM (inactive)
15,O=C(N/N=C/c1cccnc1)c1cc(O)c(O)c(O)c1,> 100 µM (inactive)
16,O=C(O)CCCN1C(=O)/C(=C/C=C/c2ccco2)SC1=S,> 100 µM (inactive)
17,NS(=O)(=O)c1cc(C(=O)N=Nc2c(O)[nH]c3ccccc23)ccc1Cl,> 100 µM (inactive)
18,CN1C(=O)/C(=C/C=C/c2ccco2)C(=O)NC1=S,24.4 µM
19,O=C(NN1C(=O)/C(=C/C=C/c2ccco2)SC1=S)c1ccccc1O,27.2 µM

row,SMILES,IC50
1,NC1=NC(=O)/C(=C\c2ccco2)S1,32 µM
2,COc1ccc(C(=O)OCC(=O)Nc2ncc([N+](=O)[O-])s2)cc1OC,> 100 µM (inactive)
3,O=C(Nc1cccc(-c2cccc(Cl)c2)c1)C1CCN(C2CCC2)CC1,10.2 µM
4,O=S(=O)(c1ccc(NC(=S)N/N=C/c2ccc(O)c(O)c2)cc1)N1CCOCC1,2.35 µM
5,CC(/C=C/C1(O)C(C)CC(=O)CC1(C)C)OC1OC(CO)C(O)C(O)C1O (configuration not stated),> 100 µM (inactive)
6,COc1cc(/C=C/C(O)=C/C(=O)/C=C/c2ccc(O)cc2)ccc1O,> 100 µM (inactive)
7,O=C(c1c(O)cc(O)cc1O)C1c2c(cc(O)c3c2O[C@H](c2ccc(O)cc2)[C@@H](O)C3)OC1c1ccc(O)cc1 (some centres not stated),23.2 µM
8,COc1ccc(Cl)cc1NC(=S)NCCC(c1ccccc1)c1ccccc1,39.4 µM
9,O=C(NCCCCc1ccccc1)NC[C@@H]1CC[C@@H](Cc2ccc(-c3ccccc3)cc2)O1,6.58 µM
10,Cc1ccc(S(=O)(=O)N2CCC(C(=O)Nc3ccc(C(C)C)cc3)CC2)cc1,> 100 µM (inactive)
11,S=C(NCCC(c1ccccc1)c1ccccc1)Nc1ccc(Cl)cc1,> 100 µM (inactive)
12,O=C(NNC(=O)c1cc2cc(Br)ccc2oc1=O)c1ccc(O)cc1O,> 100 µM (inactive)
13,CCn1nc(C)c(CN2CCC(C(=O)Nc3cccc(-c4cccc(Cl)c4)c3)CC2)c1C,> 100 µM (inactive)
14,Cc1ccc(/C=C2\SC(=S)N(/N=C/c3cc([N+](=O)[O-])ccc3O)C2=O)o1,> 100 µM (inactive)
15,Cc1c(Cl)cccc1NC(=S)NCCC(c1ccccc1)c1ccccc1,> 100 µM (inactive)
16,NS(=O)(=O)c1ccc(-c2ccc(/C=C3\NC(=S)NC3=O)o2)cc1,> 100 µM (inactive)
17,O=C(CSc1nc2nn(-c3ccccc3)c(=O)c-2c2n1CCCCC2)c1ccc(O)c(O)c1,> 100 µM (inactive)
18,N#Cc1c(SCC(=O)Nc2nc3ccccc3s2)sc2c(O)cc(=O)[nH]c12,> 100 µM (inactive)
19,Cc1ccc(N/C(N)=N/c2nc(C)cc(N3CCCCC3)n2)c(C)c1,26.3 µM

row,SMILES,IC50
1,Oc1cc(O)c2c(c1)O[C@H](c1ccc(O)c(O)c1)[C@@H](O)C2,> 100 µM (inactive)
2,CCCn1ncc(CN2CCC(C(=O)Nc3cccc(-c4cccc(F)c4)c3)CC2)c1C,> 100 µM (inactive)
3,O=C1c2cccc(O)c2C(=O)c2c(O)cc(CO)cc21,> 100 µM (inactive)
4,COc1ccc(CN2C3CCCC2CC(NC(=O)Nc2cccc(C)c2)C3)cc1 (configuration not stated),30.5 µM
5,COc1cc(NS(=O)(=O)c2ccc(NC(=S)NC(=O)/C=C/c3ccco3)cc2)ncn1,55.1 µM
6,C#CCOCCOCCOCCNc1nc(N2CCN(C(=O)CCCCCCCCCCNC(=O)[C@@H](CCSC)n3cc(CCO)nn3)CC2)nc(N2CCN(C(=O)CCCCCCCCCCNC(=O)[C@H]([C@@H](C)CC)n3cc(CCCCN=C(N)N)nn3)CC2)n1,> 100 µM (inactive)
7,S=C(NCc1ccc(Cl)cc1Cl)NC1CCCCC1,> 100 µM (inactive)
8,CCOC(=O)c1ccc(N2CCN(c3ccccc3F)CC2)c(NC(=O)Nc2cccc(OC)c2)c1,> 100 µM (inactive)
9,Cc1ccc(C)c(NS(=O)(=O)c2ccc3[nH]c(=O)oc3c2)c1,> 100 µM (inactive)
10,Cc1cc(Cl)ccc1NC(=S)NCCC(c1ccccc1)c1ccccc1,> 100 µM (inactive)
11,Cc1cccnc1Nc1nc(-c2ccc(O)c(O)c2)cs1,> 100 µM (inactive)
12,CC(C)=CCc1c(O)c(CC=C(C)C)c2c(c1O)-c1cc(O)c(O)cc1CC2,> 100 µM (inactive)
13,O=C(NN1C(=O)CSC1=S)C(=O)NN1C(=O)CSC1=S,> 100 µM (inactive)
14,O=C(NN1C(=O)/C(=C/c2ccc(O)c(O)c2)SC1=S)c1ccccc1,> 100 µM (inactive)
15,N#Cc1c(SCC(=O)Nc2nncs2)sc2c(O)cc(=O)[nH]c12,> 100 µM (inactive)
16,CC(C)(C)c1ccc(O)c(N=Cc2cc3c(cc2[N+](=O)[O-])OCO3)c1,> 100 µM (inactive)
17,O=C1/C(=C\c2cccc(O)c2O)SC(=S)N1Cc1ccccc1,> 100 µM (inactive)
18,COc1cc(/C=C/[N+](=O)[O-])ccc1OC(=O)c1cc2ccccc2oc1=O,> 100 µM (inactive)
19,O=C1NN(c2cccc(Br)c2)C(=O)/C1=C/c1ccc(-c2cc([N+](=O)[O-])ccc2O)o1,> 100 µM (inactive)
